Experiments:
Wzb (Slr0328); His6-Wzb = molecular target: T1, Wzb (Slr0328); His6-Wzb (Synechocystis sp. PCC 6803, UniProt Q55535); assay: continuous p-nitrophenol release at […] nm; format: biochemical; conditions: 10 mM pNPP, 100 mM sodium citrate pH 6.5, 1 mM EDTA, 0.1% beta-mercaptoethanol, 30 C
T1 construct: one monomer in the asymmetric unit

Wzc (Sll0923); His6-Wzc = molecular target: T2, Wzc (Sll0923); His6-Wzc (Synechocystis sp. PCC 6803, UniProt P72877); assay: ATP consumption by luciferase bioluminescence (ENLITEN); format: biochemical; conditions: 25 mM Tris-HCl pH 7.0, 1 mM DTT, 5 mM MgCl2, 30 C, 45 min; heat-inactivated Wzc as control
T2 construct: gene epsB
T2 sequence (P72877 entry or part of it): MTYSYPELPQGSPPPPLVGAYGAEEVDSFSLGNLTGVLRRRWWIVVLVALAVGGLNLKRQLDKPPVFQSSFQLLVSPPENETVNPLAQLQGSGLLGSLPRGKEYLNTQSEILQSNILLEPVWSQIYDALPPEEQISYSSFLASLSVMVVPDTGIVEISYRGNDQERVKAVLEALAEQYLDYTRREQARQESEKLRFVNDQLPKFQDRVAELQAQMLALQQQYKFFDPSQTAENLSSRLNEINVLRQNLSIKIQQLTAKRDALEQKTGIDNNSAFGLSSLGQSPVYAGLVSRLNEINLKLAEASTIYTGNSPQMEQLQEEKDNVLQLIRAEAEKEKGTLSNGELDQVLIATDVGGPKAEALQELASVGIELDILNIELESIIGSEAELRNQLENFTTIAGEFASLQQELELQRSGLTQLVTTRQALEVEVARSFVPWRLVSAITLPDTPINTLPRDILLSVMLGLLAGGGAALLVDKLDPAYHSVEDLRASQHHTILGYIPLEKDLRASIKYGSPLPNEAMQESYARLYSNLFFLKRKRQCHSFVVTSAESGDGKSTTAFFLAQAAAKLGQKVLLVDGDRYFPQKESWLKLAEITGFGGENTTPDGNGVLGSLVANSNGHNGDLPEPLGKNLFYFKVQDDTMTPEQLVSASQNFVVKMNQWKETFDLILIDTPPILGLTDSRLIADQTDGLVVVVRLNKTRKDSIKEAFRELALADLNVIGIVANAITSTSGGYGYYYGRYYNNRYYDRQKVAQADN

T1 sequence (Q55535 whole entry): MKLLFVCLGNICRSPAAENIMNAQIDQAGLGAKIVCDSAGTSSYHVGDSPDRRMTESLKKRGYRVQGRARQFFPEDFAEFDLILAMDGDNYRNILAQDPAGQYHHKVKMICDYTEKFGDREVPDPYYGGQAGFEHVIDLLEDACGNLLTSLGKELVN

Row | SMILES | continuous p-nitrophenol release at 405 nm (Wzb (Slr0328); His6-Wzb) | ATP consumption by luciferase bioluminescence (ENLITEN) (Wzc (Sll0923); His6-Wzc)
1 | O=[N+]([O-])c1ccc(OP(=O)(O)O)cc1 [p-nitrophenyl phosphate] | we first used a p‐nitrophenyl phosphate hydrolysis assay to confirm that Wzb functions as a phosphatase | 
2 | Nc1ncnc2c1ncn2[C@@H]1O[C@H](COP(=O)(O)OP(=O)(O)OP(=O)(O)O)[C@@H](O)[C@H]1O [ATP] |  | Wzc is capable of ATP binding and hydrolysis

From article PMC6562117, “The role of the tyrosine kinase Wzc (Sll0923) and the phosphatase Wzb (Slr0328) in the production of extracellular polymeric substances (EPS) by Synechocystis PCC 6803” (MicrobiologyOpen, 2019)
